Experimental data from patent publication US9956267B2, “Method of treating skeletal dysplasias using vessel dilator” (University of South Florida, priority 2010, dated 2018).
Where “and” joins values, the source holds several entries; their conditions need not be identical. Identical values can stand only once. Positions of bridges follow the written chain, without caps; N, C: chain ends. No end group written: not given here.

Key:
[1] = tested on: human osteoblast cells (ATCC number CRL-11372); experiment: Cell Titer 96 Aqueous One Solution (MTS) cell proliferation assay of human osteoblasts; type: cell-based; conditions: for enhancement of human osteoblast proliferation compared with controls: absorbance at 490 nm at day 7
Experimental: A cell line (ATCC number CRL-11372) of human osteoblast cells was purchased from the American Type Culture […] (ATCC, Manassas, Va.). Propagation of the human osteoblast cells was in a 1:1 mixture of Ham's F12 Medium and Dulbecco's Modified Eagles Medium (DMEM) with 2.5 mM L-glutamine without phenol red. Base medium was supplemented with 0.3 mg/mL of Geneticin (G418) antibiotic and 10% fetal bovine serum (Harris S A, et al. 1995 Developmental and characterization of a conditionally immortalized human fetal osteoblastic cell line. J Bone Miner Res 10:178-186). Cells were incubated at a temperature of 34° C. in 5% CO2 at which they have rapid cell division, doubling every 36 hours (Harris S A, et al. 1995 Developmental and characterization of a conditionally immortalized human fetal osteoblastic cell line. J Bone Miner Res 10:178-186). […] Cells were dispensed into new flasks with subculturing every 6-8 days. The medium was changed every 3 days.
After the osteoblast cells were subcultured for 24 h, ˜5000 cells in 200 μL of the above media were then seeded (day 1) into 96-well plates (Nuclon, Roskilde, Denmark). After overnight incubation at 34° C. in 5% CO2, the media was removed (day 2), and 50 μL of fresh media was added to control wells, blank wells (with no cells inside), and 50 μL of media with 10 picomolar (pM), 100 pM, 1 nanomolar (nM), or 10 nM of CNP or vessel dilator. At day 5, in these experiments, 50 μL of fresh media was added to the controls, blank wells, and 50 μL of media with 1 nM, 10 nM, 10 pM, and 100 pM of the respective natriuretic hormones for a total volume of 100 μL of media in each well. At day 7, 20 μL of Cell Titer 96® Aqueous One Solution (Promega Corporation, Madison, Wis.) was added to each well containing 1004 of medium and allowed to incubate for 4 h in 5% CO2 atmosphere before recording absorbance at 490 nm with a 96-well plate reader (Cory A H, et al. 1991 Use of aqueous soluble tetrazolium/formazan assay for growth assays in culture. Cancer Commun 3:207-212). There were 15 observations of vessel dilator at each concentration and 16 observations of CNP at each concentration. The peptide hormones used in this investigation were from Phoenix Pharmaceuticals, Inc., Burlingame, Calif.
Cell proliferation of human osteoblasts was examined with the Cell Titer 96 Aqueous One Solution cell proliferation assay (Promega Corp.). This colorimetric method determines the viable cells' proliferation by recording the absorption at 490 nm with a 96-well plate reader (Cory A H, et al. 1991 Use of aqueous soluble tetrazolium/formazan assay for growth assays in culture. Cancer Commun 3:207-212) after incubating the respective cells at 37° C. for 4 h in a 5% CO2 atmosphere.
Approximately 5000 human osteoblast cells were in each well. The proliferation assay detects the number of viable cells in proliferation using a tetrazolium compound (3-[4,5-dimethylthiazol-2-yl]-5-[3-carboxymethoxyphenyl]-2-[4-sulfophenyl]-2H-tetrazolium, inner salt; MTS) and an electron coupling reagent [phenazine ethosulfate (PES)]. PES has enhanced chemical stability, which allows it to be combined with MTS to form a stable solution (Cory A H, et al. 1991 Use of aqueous soluble tetrazolium/formazan assay for growth assays in culture. Cancer Commun 3:207-212). The MTS tetrazolium compound (Owen's reagent) is bioreduced by living cells into a colored formazan product that is measurable at […] in a spectrophotometer, thereby eliminating any nonviable (i.e. dead) cells that would not be proliferating (Cory A H, et al. 1991 Use of aqueous soluble tetrazolium/formazan assay for growth assays in culture. Cancer Commun 3:207-212). This method measure only viable cells' proliferation as dead cells are unable to reduce the MTS tetrazolium compound to a colored formazan product.
All data are expressed as mean±SEM. Statistical significance was determined by the Mann-Whitney test (also called Wilcoxon rank-sum test) for different sample sizes. […]

ERK 1/2 kinases [2] = conditions: ATDC5 cells, mouse chondrogenic cell line; cited from earlier work
[3] = tested on: cyclic GMP (cGMP) in chondrocytes; conditions: CNP versus ANP; cited from earlier work
[4] = circulatory half-life of natriuretic peptides; type: in vivo, human; conditions: vessel dilator versus CNP
Experimental: (§1) CNP and ANP are ring-structured natriuretic peptides with very short half-lives of <3 min in the circulation (Kalra P R, et al. 2001 The role of C-natriuretic peptide in cardiovascular medicine. Eur Heart J 22:997-1007, Teixeira C C, et al. 2008 Nitric oxide, C-type natriuretic peptide and cGMP as regulators of endochondral ossification. Dev Biol 319:171-178; Nakao K, et al. 1986 The pharmacokinetics of α-human natriuretic polypeptide in healthy subjects. Eur J Clin Pharmacol 31:101-103; Yandle T G, et al. 1986 Metabolic clearance rate and plasma half life of alpha-human atrial natriuretic peptide in man. Life Sci 38:1827-1833). Their biologic effects last for <30 min. […] J Pharmacol Exp Ther 282:603-608) and its biologic effects last >6 h (Vesely D L, et al. 1994 Three peptides from the atrial natriuretic factor prohormone amino terminus lower blood pressure and produce diuresis, natriuresis, and/or kaliuresis in humans. Circulation 90:1129-1140).
(§2) The gene for CNP is expressed in bone (Mericq V, et al. 2000 Regulation of fetal rat bone growth by C-type natriuretic peptide and cGMP. Pediatr Res 47:189-193) to allow it to be an autocrine/paracrine regulator of bone. […] Life Sci 38:1827-1833; Ackerman B H, et al. 1997 Disposition of vessel dilator and long-acting natriuretic peptide in healthy humans after a one-hour infusion. […]

[5] = duration of biologic effects of natriuretic peptides; type: in vivo, human; conditions: versus CNP
Experimental: as §1, §2

[6] = in vivo; cited from earlier work
MEK 1/2 kinases = conditions: proliferating prostate cancer cells; cited from earlier work
ERK 1/2 kinases [7] = conditions: cited from earlier work
[8] = in vivo; cited from earlier work; remark: listed apart in the source

CNP: 22 amino acid peptide having a 17-amino acid ring, generated from the natriuretic peptide precursor C gene (GLSKGCFGLKLDRIGSMSGLGC; disulfide 6-22 (inferred); UniProt P23582 105-126, looked up) [reference compound]
enhancement of human osteoblast proliferation compared with controls ([1]; 10 pM peptide): no significant enhancement
enhancement of human osteoblast proliferation compared with controls ([1]; 10 nM peptide): 27%
effect on mitogen- (fibroblast growth factor) stimulated ERK 1/2 kinases' phosphorylation (ERK 1/2 kinases [2]): inhibit
stimulation of cGMP in chondrocytes relative to ANP [3]: 10 fold

Nc1nc2c(nc(Br)n2[C@@H]2O[C@@H]3COP(=O)(O)O[C@H]3[C@H]2O)c(=O)[nH]1 [8-bromo cGMP]
effect on mitogen- (fibroblast growth factor) stimulated ERK 1/2 kinases' phosphorylation (ERK 1/2 kinases [2]): inhibit

Vessel dilator: linear natriuretic peptide synthesized by the ANP gene; cardiac hormone, molecular weight 3878.31 (EVVPPQVLSEPNEEAGAALSPLPEVPPWTGEVSPAQR; Vessel dilator; UniProt P01160 56-92, looked up)
enhancement of human osteoblast proliferation compared with controls ([1]; 10 pM peptide): 8%
enhancement of human osteoblast proliferation compared with controls ([1]; 100 pM peptide): 7%
enhancement of human osteoblast proliferation compared with controls ([1]; 1 nM peptide): 6%
enhancement of human osteoblast proliferation compared with controls ([1]; 10 nM peptide): 8%
stimulates osteoblasts at lower concentrations than CNP ([1]; compared with CNP): 1000
circulating half-life longer than CNP [4]: 36 fold
biologic effects longer than CNP, ANP or BNP [5]: 12 times and > 12 times
duration of biologic effects [6]: > 6 h
inhibition of activation, i.e. phosphorylation, of MEK 1/2 kinases (MEK 1/2 kinases): 98%
effect on mitogen (epidermal growth factor, EGF) stimulation of ERK 1/2 kinases (ERK 1/2 kinases [7]; EGF stimulation): completely blocks
inhibition of the phosphorylation of basal activity of ERK 1/2 kinases (ERK 1/2 kinases [7]; proliferating cells, basal activity): 96%
circulatory half-life [8]: 1.78 h
duration of biologic effect [8]: > 6 h

BNP: natriuretic peptide named with CNP and ANP, biologic effects less than 30 minutes [reference compound]
duration of biologic effects [6]: less than 30 min
